This note sets out measurements from US20260258044A1, “PIPERIDINYL-METHYL-PURINE AMINE FUMARIC ACID SALTS, CRYSTALLINE FORMS, AND THEIR USE IN TREATING MEDICAL DISEASES AND CONDITIONS” (K36 Therapeutics, Inc., priority 2022, published 2026).

“Also recorded” adds a separate entry of the source.

Assay type in all cases: physicochemical
Series [1] is described as follows: water solubility of the crystalline solid. To be noted: 37° C.
Series [2] in a line: accelerated stability study (HPLC and XRPD of recovered salts). To be noted: for HPLC Purity (Area %) After Study / XRPD After Study: after one week at 75% relative humidity, 40° C.; for HPLC Purity (Area %) Before Study: before storage. The protocol:
An accelerated stability study was conducted on crystalline Form 1 (prepared according to Procedure 2 of Example 1), Form 2, Form 3 (prepared according to Procedure 1 of Example 3), and Form 4 of (S)-1-((R)-3-amino-1-(4-((6-amino-9H-purin-9-yl)methyl)-6-(2,5-difluoro-4-methoxyphenyl) pyridin-3-yl)piperidin-3-yl)-2,2-difluoroethan-1-ol fumaric acid salt. Approximately 12 mg of each solid was placed into separate 4-mL vials, and then the vials were covered with a Kimwipe. The vials were stored for one week inside a stability chamber producing a relative humidity of 75% at 40° C.

The nature of series [3]: hygroscopicity by dynamic vapor sorption. To be noted: transitioned from 2% to 95% relative humidity. The protocol:
Dynamic vapor sorption was performed using a Q5000SA. The sample (5-15 mg) was loaded into a metallic quartz sample pan, suspended from a microbalance, and exposed to a humidified stream of nitrogen gas. Weight changes were relative to a matching empty reference pan opposite the sample, suspended from the microbalance. The sample was held for a minimum of 10 min at each humidity level and only progressed to the next humidity level if there was <0.002% change in weight between measurements (interval: 5 s) or 60 min had elapsed. The following program was used: • 1. Equilibration at 50% RH • 2. 50% to 2% RH (50%, 40%, 30%, 20%, 10%, and 2% RH) • 3. 2% to 95% RH (2%, 10%, 20%, 30%, 40%, 50%, 60%, 70%, 80%, 90%, and 95% RH) • 4. 95% to 2% RH (95%, 80%, 70%, 60%, 50%, 40%, 30%, 20%, 10%, and 2% RH) • 5. 2% to 50% RH (2%, 10%, 20%, 30%, 40%, and 50% RH).

Take `COc1cc(F)c(-c2cc(Cn3cnc4c(N)ncnc43)c(N3CCC[C@](N)([C@H](O)C(F)F)C3)cn2)cc1F.O=C(O)/C=C/C(=O)O` [Form 1, (S)-1-((R)-3-amino-1-(4-((6-amino-9H-purin-9-yl)methyl)-6-(2,5-difluoro-4-methoxyphenyl)pyridin-3-yl)piperidin-3-yl)-2,2-difluoroethan-1-ol Fumaric Acid Salt]: in series [1] (after 30 minutes), the water solubility amounted to 300 µg/mL. Also, the water solubility in series [1] (after 24 hours) is 1400 µg/mL. Further, in series [2], the “HPLC Purity (Area %) After Study” value amounted to 99.52 Area %, the “XRPD After Study” value is given as “No change; also recorded: Unchanged” and the “HPLC Purity (Area %) Before Study” value is given as 99.50 Area %. This molecule displayed an increase in weight in series [3] of 1.5%.
`COc1cc(F)c(-c2cc(Cn3cnc4c(N)ncnc43)c(N3CCC[C@](N)([C@H](O)C(F)F)C3)cn2)cc1F.O=C(O)/C=C/C(=O)O` [Form 2, (S)-1-((R)-3-amino-1-(4-((6-amino-9H-purin-9-yl)methyl)-6-(2,5-difluoro-4-methoxyphenyl)pyridin-3-yl)piperidin-3-yl)-2,2-difluoroethan-1-ol Fumaric Acid Salt] came in with a water solubility in series [1] (after 30 minutes) of 2200 µg/mL. In addition, the water solubility in series [1] (after 24 hours) was determined as 1100 µg/mL. In series [2], the “HPLC Purity (Area %) After Study” value is on record as 99.49 Area %, the “XRPD After Study” value is “Slight shifting of peaks at higher diffraction angles (2θ); also recorded: Slight Shifting of Certain” and the “HPLC Purity (Area %) Before Study” value was 99.51 Area %.
Regarding `COc1cc(F)c(-c2cc(Cn3cnc4c(N)ncnc43)c(N3CCC[C@](N)([C@H](O)C(F)F)C3)cn2)cc1F.O=C(O)/C=C/C(=O)O` [Form 3, (S)-1-((R)-3-amino-1-(4-((6-amino-9H-purin-9-yl)methyl)-6-(2,5-difluoro-4-methoxyphenyl)pyridin-3-yl)piperidin-3-yl)-2,2-difluoroethan-1-ol Fumaric Acid Salt], in series [1] (after 30 minutes), the water solubility is 800 µg/mL. The same molecule had a water solubility in series [1] (after 24 hours) of 700 µg/mL. Moreover, in series [2], the “HPLC Purity (Area %) After Study” value is 99.56 Area %, the “XRPD After Study” value was “Increased crystallinity; also recorded: Higher Crystallinity” and the “HPLC Purity (Area %) Before Study” value came to 99.58 Area %. For the same molecule, in series [3], the increase in weight worked out at 5.1% and the “increase in weight as molar equivalents of water” value is on record as “approximately 1.8 molar equivalents”.
Consider `COc1cc(F)c(-c2cc(Cn3cnc4c(N)ncnc43)c(N3CCC[C@](N)([C@H](O)C(F)F)C3)cn2)cc1F.O=C(O)/C=C/C(=O)O` [Form 4, (S)-1-((R)-3-amino-1-(4-((6-amino-9H-purin-9-yl)methyl)-6-(2,5-difluoro-4-methoxyphenyl)pyridin-3-yl)piperidin-3-yl)-2,2-difluoroethan-1-ol Fumaric Acid Salt], for which, in series [1] (after 30 minutes), the water solubility amounted to 700 µg/mL. Also, in series [1] (after 24 hours), the water solubility was determined as 600 µg/mL. Moreover, in series [2], the “HPLC Purity (Area %) After Study” value came out at 99.59 Area %, the “XRPD After Study” value is listed as “Conversion to Form 3” and the “HPLC Purity (Area %) Before Study” value is 99.56 Area %. Moreover, in series [3], the increase in weight is 5.5% and the “increase in weight as molar equivalents of water” value is “approximately 2.0 molar equivalents”.
